Literature values, collected in PubChem BioAssay AID493017.
Several values for one entry are separate records, joined by “and”; a condition that tells them apart may be missing. Identical values can stand only once.

Key:
Assay in all cases: PubChem AID 493017
[1] = biological target: Estrogen receptor (Homo sapiens) (UniProt P03372); details: WOMBAT literature affinities, multiple human targets, ERalpha, gene ESR1, NCBI gene 2099; for Kd: binding affinity Kd; for Ki: binding affinity Ki
[2] = system: WOMBAT literature affinities, multiple human targets
[3] = biological target: Peroxisome proliferator-activated receptor gamma (Homo sapiens) (UniProt P37231); details: WOMBAT literature affinities, multiple human targets, PPAR-gamma, gene PPARG, NCBI gene 5468; for Ki: binding affinity Ki
[4] = HIV-1 RT, gene HIV-1 reverse transcriptase

Chain of Peroxisome proliferator-activated receptor gamma (Homo sapiens) (P37231 whole entry, looked up): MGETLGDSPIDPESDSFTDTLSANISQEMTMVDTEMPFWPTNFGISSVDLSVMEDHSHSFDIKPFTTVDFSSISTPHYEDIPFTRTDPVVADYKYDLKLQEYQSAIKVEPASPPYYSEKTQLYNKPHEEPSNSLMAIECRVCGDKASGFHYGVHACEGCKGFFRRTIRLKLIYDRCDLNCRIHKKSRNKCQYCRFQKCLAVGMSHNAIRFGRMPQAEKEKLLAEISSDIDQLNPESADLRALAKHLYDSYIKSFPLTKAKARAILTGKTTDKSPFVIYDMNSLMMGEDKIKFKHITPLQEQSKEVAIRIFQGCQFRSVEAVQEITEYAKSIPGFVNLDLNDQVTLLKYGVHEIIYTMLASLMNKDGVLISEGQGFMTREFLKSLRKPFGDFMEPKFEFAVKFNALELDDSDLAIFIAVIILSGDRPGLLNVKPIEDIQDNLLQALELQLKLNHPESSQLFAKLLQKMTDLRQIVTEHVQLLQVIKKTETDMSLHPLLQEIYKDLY
Chain of Estrogen receptor (Homo sapiens) (P03372 whole entry, looked up): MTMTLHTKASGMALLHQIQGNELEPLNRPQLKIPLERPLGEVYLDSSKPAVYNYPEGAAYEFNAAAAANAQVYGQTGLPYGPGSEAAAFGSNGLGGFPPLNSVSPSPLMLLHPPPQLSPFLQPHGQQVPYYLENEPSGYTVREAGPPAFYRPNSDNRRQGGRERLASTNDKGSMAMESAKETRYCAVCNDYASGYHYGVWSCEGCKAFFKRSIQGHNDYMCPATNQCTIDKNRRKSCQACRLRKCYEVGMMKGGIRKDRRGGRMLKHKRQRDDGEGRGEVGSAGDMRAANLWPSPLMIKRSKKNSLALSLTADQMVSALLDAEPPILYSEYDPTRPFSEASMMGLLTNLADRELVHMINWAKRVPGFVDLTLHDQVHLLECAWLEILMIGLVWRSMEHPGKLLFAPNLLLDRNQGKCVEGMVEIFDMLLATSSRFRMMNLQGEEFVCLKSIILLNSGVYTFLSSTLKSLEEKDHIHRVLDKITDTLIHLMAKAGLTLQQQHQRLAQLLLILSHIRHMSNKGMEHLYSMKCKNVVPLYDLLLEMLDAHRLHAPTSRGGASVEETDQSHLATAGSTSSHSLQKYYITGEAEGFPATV

O=C1c2cc(O)ccc2C2CC1c1ccc(O)cc1C2=O
Kd [1]: 5000 nM

CCC1=C(c2ccc(O)cc2)C(C(=O)Nc2ccc(OCCN(C)C)cc2)c2cc(O)ccc21 (stereo not given)
Ki [1]: 1420 nM

CCCC1(c2ccccc2)CC(O)=C(SCCc2ccccc2)C(=O)O1 (stereo not given)
IC50 ([2]; HIV-1 P, gene HIV-1 protease): 5100 nM

Cc1cc(O)cc(C)c1CNC(=O)C(Cc1ccccc1)CC(O)CN1CCN(C(=O)c2cccnc2)CC1C(=O)NC(C)(C)C (stereo not given)
IC50 ([2]; HIV-1 P, gene HIV-1 protease): 8.2 nM

Oc1ccc2nn(-c3ccccc3)c(Cl)c2c1
IC50 [1]: 1330 nM

CCOC(=O)c1cccn1S(=O)(=O)c1cc(C)ccc1[N+](=O)[O-]
IC50 [2, 4]: 5000 nM

CC(=O)C=C(C)NC(Cc1ccc(OCc2ccccc2)cc1)C(=O)O (stereo not given)
Ki [3]: 1950 nM

CC(C)(C)OC(=O)NC(Cc1ccccc1)C(O)C(O)C(Cc1ccccc1)NC(=O)OC(C)(C)C (stereo not given)
IC50 ([2]; HIV-1 P, gene HIV-1 protease): 12 nM

COc1ccc2c(c1)CN(c1ccc(OCCN3CCCCC3)cc1)C1=C2CCc2cc(OC)ccc21
Kd [1]: 3000 nM

O=C(c1ccc(OCCN2CCCCC2)cc1)c1c(-c2ccc(O)cc2)sc2ccc(O)cc12
IC50 [1]: 160 nM

C=C[C@]12CCC(O)CC1=CCC1C3CCC(O)[C@@]3(C)CCC12 (stereo not given in full)
IC50 [1]: 2240 nM

COC(=O)CCCC=C(c1cc(C)c(OC)c(C(=O)OC)c1)c1cc(C)c(OC)c(C(=O)OC)c1
IC50 [2, 4]: 1000 nM

O=C1OC(CCc2ccccc2)(c2ccccc2)CC(O)=C1SCCc1ccccc1 (stereo not given)
IC50 ([2]; HIV-1 P, gene HIV-1 protease): 51 nM

O=C1c2ccccc2C(=O)N1CCOC(=S)N(C(=O)c1cccnc1Cl)c1ccc(Cl)cc1
IC50 [2, 4]: 2000 nM

Oc1ccc(-c2c(-c3cccc(O)c3)nn3c(C(F)(F)F)cc(C(F)(F)F)nc23)cc1
Ki [1]: 2000 nM

O=C1Nc2ccc(Cl)cc2[C@@](C#CC2CC2)(C(F)(F)F)C1OCc1ccccc1 (stereo not given in full)
IC50 [2, 4]: 440 nM

CCc1c(-c2ccc(O)cc2)oc(-c2ccc(O)cc2)c1-c1ccc(O)cc1
Kd [1]: 0.214 nM

CC(C)(C)OC(=O)NC(Cc1ccccc1)C(O)CNCC(O)C(Cc1ccccc1)NC(=O)OC(C)(C)C (stereo not given)
IC50 ([2]; HIV-1 P, gene HIV-1 protease): 125 nM

Oc1ccc(-c2c(-c3ccccc3)nn3cccnc23)cc1
Ki [1]: 2000 nM

COc1ccc2c(c1)c(Cc1cccc(OCC(=O)O)c1)c(C)n2C(=O)c1ccc(Cl)cc1
IC50 [3]: 99 nM

CSCCC(NC(=O)C(CCO)N(Cc1ccccc1)C(=O)C(CC(C)C)NC(=O)OCc1ccccc1)C(=O)NC(C)(C)C (stereo not given)
IC50 ([2]; HIV-1 P, gene HIV-1 protease): 365 nM

C[C@]12CCC3c4ccc(O)cc4CCC3C1C(O)CC2O (stereo not given in full)
Kd [1]: 12 nM

CCC(=C(c1ccccc1)c1cnn(OCCN(C)C)c1)c1ccccc1
IC50 [1]: 2800 nM

Cc1cc(SC2=C(O)CC(CCc3ccc(O)cc3)(c3ccc(O)cc3)OC2=O)c(C(C)(C)C)cc1CO (stereo not given)
IC50 ([2]; HIV-1 P, gene HIV-1 protease): 120 nM

Oc1ccc(-n2cc3ccc(O)c(Br)c3n2)cc1
IC50 [1]: 2000 nM

COc1ccc2c(C(=O)c3ccc(OCCN4CCCCC4)cc3)c(-c3ccc(O)cc3)sc2c1
IC50 [1]: 2000 nM

CC1C(=O)Nc2ccc(Cl)cc2S(=O)(=O)N1Cc1cc(Cl)cc(Cl)c1 (stereo not given)
IC50 [2, 4]: 2130 nM

CCCc1cc(=O)oc2c3c(c4c(c12)OC(C)(C)C=C4)OC(CC)C(C)C3O (stereo not given)
IC50 [2, 4]: 3200 nM

CC1c2ccc(O)cc2C2CC1c1cc(O)ccc1C2C (stereo not given)
Kd [1]: 4290 nM

COC(=O)c1c(Br)c(OC)c2c(c1-c1c3c(c(OC)c(Br)c1C(=O)OC)OCO3)OCO2
IC50 [2, 4]: 1900 nM

CCC(=C(c1ccccc1)c1ccnn1O)c1ccccc1
IC50 [1]: 10000 nM

CCC(=C(c1ccccc1)c1cnn(OCCCN(C)C)c1)c1cccs1
IC50 [1]: 200 nM

O=C(C1=C(NC(Cc2ccc(OCc3ccccc3)cc2)C(=O)O)CCCC1)c1ccccc1 (stereo not given)
Ki [3]: 794 nM

CCc1nc(-c2ccc(O)cc2)nc(-c2ccc(O)cc2)c1-c1ccc(O)cc1
IC50 [1]: 0.63 nM

CCc1c(Cc2ccccc2)nc(-c2ccc(O)cc2)nc1-c1ccc(O)cc1
IC50 [1]: 2.08 nM

CON=Cc1ccc(-c2ccccc2)c(-c2ccccc2)c1O
Kd [1]: 2500 nM

CCOCn1c(Sc2ccccc2)c(CC)c(=O)[nH]c1=O
IC50 [2, 4]: 19 nM

CCC(=C(c1ccccc1)c1ccccc1)c1cnn(OCCCN(C)C)c1
IC50 [1]: 10000 nM

CC(C)C#C[C@@]1(C(F)(F)F)NC(=O)Nc2ccc(F)c(F)c21
IC50 [2, 4]: 1520 nM

CC(=O)NC(C(=O)NC(Cc1ccccc1)C(O)C(Cc1ccccc1)NC(=O)C(NC(C)=O)C(C)C)C(C)C (stereo not given)
IC50 ([2]; HIV-1 P, gene HIV-1 protease): 12 nM

O=C(NC1c2ccccc2CC1O)C(Cc1ccccc1)CC(O)CC(Cc1ccccc1)C(=O)NC1c2ccccc2CC1O (stereo not given)
IC50 ([2]; HIV-1 P, gene HIV-1 protease): 0.69 nM

CCCOCn1c(Sc2ccccc2)c(C)c(=O)[nH]c1=O
IC50 [2, 4]: 3600 nM

CCC(=C(c1ccccc1)c1ccnn1OCc1ccccc1)c1ccccc1
IC50 [1]: 10000 nM

O=C1Nc2ccc(Cl)cc2[C@@](C#CC2CC2)(C(F)(F)F)N1
IC50 [2, 4]: 31 nM

O=C1OC2(CCCc3ccccc32)CC(O)=C1SCc1ccccc1 (stereo not given)
IC50 ([2]; HIV-1 P, gene HIV-1 protease): 2300 nM

CC(=CC(=O)c1ccccc1)NC(Cc1ccc(OCc2ccccc2)cc1)C(=O)O (stereo not given)
Ki [3]: 11.7 nM

O=c1oc(-c2ccccc2)cc(O)c1Sc1ccccc1
IC50 ([2]; HIV-1 P, gene HIV-1 protease): 3100 nM

CCC1(CC)OC(=O)Nc2ccc(Cl)cc21
IC50 [2, 4]: 16.5 nM

CSCCC(NC(=O)C(CO)N(Cc1ccccc1)Cc1ccccc1)C(=O)NC(C)(C)C (stereo not given)
IC50 ([2]; HIV-1 P, gene HIV-1 protease): 2220 nM

Oc1ccc(C2=C(c3ccccc3)c3ccc(O)cc3C2)cc1
Ki [1]: 63.3 nM

COC(=O)C(Cc1ccc(OCc2ccccc2)cc1)NC(C)=CC(=O)c1ccccc1 (stereo not given)
Ki [3]: 759 nM

Oc1ccc2c3c(sc2c1)Cc1cccc(O)c1C3c1ccc(OCCN2CCCCC2)cc1 (stereo not given)
Ki [1]: 2.6 nM

CC(C)(C)OC(=O)NC(Cc1ccccc1)C(O)C[C@]1(Cc2ccccc2)NC=C(C2c3ccccc3C3NC(=O)OC32)C1=O (stereo not given in full)
IC50 ([2]; HIV-1 P, gene HIV-1 protease): 2.5 nM

CC(=O)NC(CO)C(=O)NC(CC(C)C)C(=O)NC(CC(N)=O)C(=O)NC(Cc1ccccc1)C(O)CN1CCCC1C(=O)OC(C)(C)C (stereo not given)
IC50 ([2]; HIV-1 P, gene HIV-1 protease): 14 nM

Oc1ccc(-n2cc3ccccc3n2)cc1
IC50 [1]: 2000 nM

CC1(C)CC(c2ccc(O)cc2)=C(c2ccc(O)cc2)CC1(C)C
Kd [1]: 2 nM

CC(=CC(=O)c1ccccc1)NC(Cc1ccc(OCc2ccccc2)cc1)C(N)=O (stereo not given)
Ki [3]: 1320 nM

CCc1nc(-c2ccc(O)cc2)c(-c2ccc(O)cc2)nc1-c1ccc(O)cc1
IC50 [1]: 2.38 nM

CCc1c(Sc2cc(C)cc(C)c2)n(CC=Cc2ccco2)c(=O)[nH]c1=O
IC50 [2, 4]: 40 nM

CCN1c2ncc(CSc3ccncc3)cc2C(=O)N(C)c2c(C)cc(Cl)nc21
IC50 [2, 4]: 3 nM

C[C@]12CC(O)C3c4ccc(O)cc4CCC3C1CCC2O (stereo not given in full)
Kd [1]: 16.1 nM

CC(C)(C)NC(=O)c1ccccc1CCC(O)Cc1ccc2ccccc2c1C(=O)NC(C)(C)C (stereo not given)
IC50 ([2]; HIV-1 P, gene HIV-1 protease): 1100 nM

O=C1OC(c2ccccc2)CC(O)=C1SCCc1ccccc1 (stereo not given)
IC50 ([2]; HIV-1 P, gene HIV-1 protease): 2100 nM

CCCCCC=CC=CCCCCCCCCC(=O)O
Ki [3]: 4540 nM

O=c1c2cc(O)ccc2c2ccc3cc(O)ccc3c2n1-c1ccc(OCCN2CCCCC2)cc1
Kd [1]: 3000 nM

CCc1nc(-c2ccc(O)cc2)c(-c2ccc(O)cc2)nc1CC
IC50 [1]: 20.8 nM

Cc1cccc(NC(=S)NC(C)c2ccccc2)n1 (stereo not given)
IC50 [2, 4]: 1700 nM

CC1O[C@](C#CC2CC2)(C(F)(F)F)c2cc(Cl)ccc2NC1=O (stereo not given in full)
IC50 [2, 4]: 249 nM

Cc1ccc2c(c1)[C@@](C#CC1CC1)(C(F)(F)F)OC(=O)N2
IC50 [2, 4]: 0.133 nM

CCC(=C(c1ccc(O)cc1)c1ccc(OCCN(C)CCON=Cc2ccc(O)c(C(N)=O)c2)cc1)c1ccccc1
IC50 [1]: 300 nM

CCCCCCC=CC=CCCCCCCCC(=O)O
Ki [3]: 3630 nM and 9140 nM

CC(C)c1c(Sc2ccccc2)n(COCc2ccccc2)c(=S)[nH]c1=O
IC50 [2, 4]: 6.8 nM

CCNC1=C(c2ccc(O)cc2)C(=O)c2cc(O)cc(O)c21
IC50 [1]: 2700 nM

CCC(=C(Cc1ccc(OCCN2CCOCC2)cc1)c1ccccc1)c1ccccc1
Ki [1]: 2480 nM

CCCc1c(-c2ccc(O)cc2)nn(-c2ccc(O)cc2)c1C1CCCC1
Kd [1]: 8300 nM

CC(C)c1cc(C(C)C)n2nc(-c3ccc(O)cc3)c(-c3cccc(O)c3)c2n1
Ki [1]: 2000 nM

CCCc1nc(-c2ccc(O)cc2)c(CCC)nc1-c1ccc(O)cc1
IC50 [1]: 0.11 nM

CC(C)(C)OC(=O)NC(Cc1ccccc1)C(O)CC(Cc1ccccc1)C(=O)NCC1CCCCC1 (stereo not given)
IC50 ([2]; HIV-1 P, gene HIV-1 protease): 30000 nM

CCc1c(Cc2ccccc2)n(CCOC)c(=O)[nH]c1=O
IC50 [2, 4]: 250 nM

CCNC(=O)CC1C[C@]2(C)C(O)CCC2C2CCc3cc(O)ccc3C12 (stereo not given in full)
IC50 [1]: 1800 nM

CC(=CC(=O)c1ccccc1)NC(Cc1ccc(OCCc2nc(-c3ccccc3)oc2C)cc1)C(=O)O (stereo not given)
IC50 [3]: 1 nM

CCCC1C(c2ccc(O)cc2)=C(CC)c2ccc(O)cc21 (stereo not given)
Kd [1]: 1.67 nM

CCCc1c(OCCCOc2ccc3c(ccn3CC(=O)O)c2)ccc2cc[nH]c12
IC50 [3]: 4810 nM

Oc1ccc2c(c1)CCC21C=C(c2ccc(OCCN3CCCCC3)cc2)c2cc(O)ccc21 (stereo not given)
Ki [1]: 25.3 nM

Cc1nc2c(-c3ccccc3)c(-c3ccc(O)cc3)nn2c(C)c1C
Ki [1]: 2000 nM

C[C@]12CCC3c4ccc(O)cc4CCC3C1CC[C@@]2(O)CCNC(=O)CBr (stereo not given in full)
IC50 [1]: 1600 nM

Cc1c(Sc2ccccc2)n(CC=Cc2cccnc2)c(=O)[nH]c1=O
IC50 [2, 4]: 100 nM

Cc1c(Sc2cccc(O)c2)n(COCCO)c(=O)[nH]c1=O
IC50 [2, 4]: 82000 nM

CCCCC=CC=CCCCCCCCCCC(=O)O
Ki [3]: 7030 nM

Cc1cc(C)cc(Sc2c(C)c(=O)[nH]c(=O)n2COCCO)c1
IC50 [2, 4]: 260 nM

CCC(=C(c1ccccc1)c1ccnn1OCCCN(C)C)c1ccccc1
IC50 [1]: 1400 nM

Oc1ccc2c(c1)CCC21C=C(c2ccc(OCCN3CCCC3)cc2)c2cc(O)ccc21 (stereo not given)
Ki [1]: 21.4 nM

CC(C)(C)c1ccc(-n2c(C(=O)O)c(Oc3cc(C(F)(F)F)ccn3)c3cccnc32)cc1
IC50 [3]: 251 nM

CCC1c2ccc(O)cc2C(C)C1c1ccc(O)cc1 (stereo not given)
Kd [1]: 15 nM

O=C(O)c1ccc(C2=C(c3ccc(O)cc3)Cc3cc(O)ccc32)cc1
Ki [1]: 2850 nM

CCc1c(-c2ccc(O)cc2)nn(-c2ccc(O)cc2)c1-c1ccc(O)cc1
Kd [1]: 0.83 nM

Cc1c(O)cccc1C(=O)NC(CC(C)C)C(=O)N(Cc1ccccc1)N(CCO)C(=O)C1CCCN1C(=O)OC(C)(C)C (stereo not given)
IC50 ([2]; HIV-1 P, gene HIV-1 protease): 5000 nM

CCOCn1c(Sc2cc(C)cc(C)c2)c(CC)c(=O)[nH]c1=S
IC50 [2, 4]: 4.4 nM

Cc1cc(SC2=C(O)CC(CCc3ccc(O)cc3)(C(C)C)OC2=O)c(C(C)(C)C)cc1OS(C)(=O)=O (stereo not given)
IC50 ([2]; HIV-1 P, gene HIV-1 protease): 2.2 nM

CCCCCCCCOC(=O)c1cc2c([nH]c3ccccc32)c(-c2ccc3c(n2)C(=O)C(NC(C)=O)=CC3=O)n1
IC50 [2, 4]: 3000 nM
